Source: PubChem BioAssay AID1259407 (Chemical Carcinogenesis Research Information System (CCRIS), 2018)
Active and inactive are the calls of the source. The rule behind the calls is not given here.

Tested on: CCRIS mutagenicity, Ames/micronucleus/aberration tests
Experiment: CCRIS mutagenicity studies
[1] = Test System: AMES SALMONELLA TYPHIMURIUM, Strain/Indicator: TA98, Metabolic Activation: NONE, Method: STANDARD PLATE
[2] = Test System: AMES SALMONELLA TYPHIMURIUM, Strain/Indicator: TA100, Metabolic Activation: NONE, Method: STANDARD PLATE
[3] = Test System: AMES SALMONELLA TYPHIMURIUM, Strain/Indicator: TA98, Metabolic Activation: HAMSTER, LIVER, S-9, AROCLOR 1254 (10%), Method: PREINCUBATION
[4] = Test System: AMES SALMONELLA TYPHIMURIUM, Strain/Indicator: TA98, Metabolic Activation: RAT, LIVER, S-9, AROCLOR 1254 (10%), Method: PREINCUBATION
[5] = Test System: AMES SALMONELLA TYPHIMURIUM, Strain/Indicator: TA100, Metabolic Activation: HAMSTER, LIVER, S-9, AROCLOR 1254 (10%), Method: PREINCUBATION
[6] = Test System: AMES SALMONELLA TYPHIMURIUM, Strain/Indicator: TA100, Metabolic Activation: NONE, Method: PREINCUBATION
[7] = Test System: AMES SALMONELLA TYPHIMURIUM, Strain/Indicator: TA100, Metabolic Activation: RAT, LIVER, S-9, AROCLOR 1254 (10%), Method: PREINCUBATION
[8] = Test System: AMES SALMONELLA TYPHIMURIUM, Strain/Indicator: TA1535, Metabolic Activation: HAMSTER, LIVER, S-9, AROCLOR 1254 (10%), Method: PREINCUBATION
[9] = Test System: AMES SALMONELLA TYPHIMURIUM, Strain/Indicator: TA1535, Metabolic Activation: NONE, Method: PREINCUBATION
[10] = Test System: AMES SALMONELLA TYPHIMURIUM, Strain/Indicator: TA1535, Metabolic Activation: RAT, LIVER, S-9, AROCLOR 1254 (10%), Method: PREINCUBATION
[11] = Test System: AMES SALMONELLA TYPHIMURIUM, Strain/Indicator: TA98, Metabolic Activation: NONE, Method: PREINCUBATION
[12] = Test System: AMES SALMONELLA TYPHIMURIUM, Strain/Indicator: TA1537, Metabolic Activation: NONE, Method: PREINCUBATION

CCOC(=O)c1[nH]c2ccccc2c1N=Cc1cc(OC)c(OC)c(OC)c1
mutagenic call (Test System: AMES SALMONELLA TYPHIMURIUM, Strain/Indicator: TA97, Metabolic Activation: NONE, Method: STANDARD PLATE): active; positive
mutagenic call (Test System: AMES SALMONELLA TYPHIMURIUM, Strain/Indicator: TA97, Metabolic Activation: RAT, LIVER, S-9, AROCLOR 1254, Method: STANDARD PLATE): inactive; negative
mutagenic call [1]: inactive; negative
mutagenic call (Test System: AMES SALMONELLA TYPHIMURIUM, Strain/Indicator: TA98, Metabolic Activation: RAT, LIVER, S-9, AROCLOR 1254, Method: STANDARD PLATE): inactive; negative
mutagenic call [2]: inactive; negative
mutagenic call (Test System: AMES SALMONELLA TYPHIMURIUM, Strain/Indicator: TA100, Metabolic Activation: RAT, LIVER, S-9, AROCLOR 1254, Method: STANDARD PLATE): inactive; negative
mutagenic call (Test System: AMES SALMONELLA TYPHIMURIUM, Strain/Indicator: TA102, Metabolic Activation: NONE, Method: STANDARD PLATE): inactive; negative
mutagenic call (Test System: AMES SALMONELLA TYPHIMURIUM, Strain/Indicator: TA102, Metabolic Activation: RAT, LIVER, S-9, AROCLOR 1254, Method: STANDARD PLATE): inactive; negative

O=P(O)(O)CCCl
mutagenic call (End Point: In vitro chromosomal aberrations, Test System: Chinese hamster ovary (CHO-WBL) cells, Metabolic Activation: None): inactive; negative
mutagenic call (End Point: In vitro chromosomal aberrations, Test System: Chinese hamster ovary (CHO-WBL) cells, Metabolic Activation: Rat, Liver, S-9, Aroclor 1254): inactive; negative
mutagenic call (Test System: Chinese hamster ovary cells, Strain/Indicator: CHO-K1-BH4 (HGPRT)/6-Thioguanine, Metabolic Activation: None, Method: Suspension/Plate?): inactive; negative (an increase in mutation frequency at 2.5 mg/ml not confirmed in repeat
mutagenic call (Test System: Chinese hamster ovary cells, Strain/Indicator: CHO-K1-BH4 (HGPRT)/6-Thioguanine, Metabolic Activation: Rat, Liver, S-9, Aroclor 1254, Method: Suspension/Plate?): inactive; negative (an increase in mutation frequency at 2.5 mg/ml not confirmed in repeat

c1ccc([C@H]2CO2)cc1
mutagenic call (Test System: AMES SALMONELLA TYPHIMURIUM, Strain/Indicator: TA100, Metabolic Activation: NONE): active; positive
mutagenic call [2]: active; positive

BrCc1ccc(CBr)cc1
mutagenic call [1]: inactive; negative
mutagenic call [2]: inactive; negative

OCC(O)CCl (configuration not stated)
mutagenic call (Test System: AMES SALMONELLA TYPHIMURIUM, Strain/Indicator: TA97, Metabolic Activation: HAMSTER, LIVER, S-9, AROCLOR 1254 (10%), Method: PREINCUBATION): inactive; negative
mutagenic call (Test System: AMES SALMONELLA TYPHIMURIUM, Strain/Indicator: TA97, Metabolic Activation: RAT, LIVER, S-9, AROCLOR 1254 (10%), Method: PREINCUBATION): inactive; negative
mutagenic call [3]: inactive; negative
mutagenic call [4]: inactive; negative
mutagenic call (Test System: AMES SALMONELLA TYPHIMURIUM, Strain/Indicator: TA98, Metabolic Activation: RAT, LIVER, S-9, KANECHLOR 500, Method: PREINCUBATION): inactive; negative
mutagenic call [5]: active; positive
mutagenic call [6]: active; positive
mutagenic call [7]: active; positive
mutagenic call (Test System: AMES SALMONELLA TYPHIMURIUM, Strain/Indicator: TA100, Metabolic Activation: RAT, LIVER, S-9, KANECHLOR 500, Method: PREINCUBATION): inactive; negative
mutagenic call [8]: active; positive
mutagenic call [9]: active; positive
mutagenic call [10]: active; positive

Cc1ccc(CN2C3c4ccccc4-c4ccccc4C32)cc1 (configuration not stated)
mutagenic call [2]: active; positive

O=S1(=O)CCCC1
mutagenic call [11]: inactive; negative
mutagenic call (Test System: AMES SALMONELLA TYPHIMURIUM, Strain/Indicator: TA98, Metabolic Activation: RAT, LIVER, S-9, KC 500, Method: PREINCUBATION): inactive; negative
mutagenic call [6]: inactive; negative
mutagenic call (Test System: AMES SALMONELLA TYPHIMURIUM, Strain/Indicator: TA100, Metabolic Activation: RAT, LIVER, S-9, KC 500, Method: PREINCUBATION): inactive; negative
mutagenic call [9]: inactive; negative
mutagenic call (Test System: AMES SALMONELLA TYPHIMURIUM, Strain/Indicator: TA1535, Metabolic Activation: RAT, LIVER, S-9, KC 500, Method: PREINCUBATION): inactive; negative
mutagenic call [12]: inactive; negative
mutagenic call (Test System: AMES SALMONELLA TYPHIMURIUM, Strain/Indicator: TA1537, Metabolic Activation: RAT, LIVER, S-9, KC 500, Method: PREINCUBATION): inactive; negative
mutagenic call (Test System: AMES SALMONELLA TYPHIMURIUM, Strain/Indicator: TA1538, Metabolic Activation: NONE, Method: PREINCUBATION): inactive; negative
mutagenic call (Test System: AMES SALMONELLA TYPHIMURIUM, Strain/Indicator: TA1538, Metabolic Activation: RAT, LIVER, S-9, KC 500, Method: PREINCUBATION): inactive; negative
mutagenic call (Test System: E. COLI, Strain/Indicator: WP2 UVRA, Metabolic Activation: NONE, Method: PREINCUBATION): inactive; negative
mutagenic call (Test System: E. COLI, Strain/Indicator: WP2 UVRA, Metabolic Activation: RAT, LIVER, S-9, KC 500, Method: PREINCUBATION): inactive; negative

[S]=[Co]
mutagenic call (Test System: CHINESE HAMSTER G10, Strain/Indicator: G10 (GPT)/6-THIOGUANINE, Metabolic Activation: NONE): inactive; negative
mutagenic call (Test System: CHINESE HAMSTER G12, Strain/Indicator: G12 (GPT)/6-THIOGUANINE, Metabolic Activation: NONE): active; positive
mutagenic call (Test System: CHINESE HAMSTER V-79, Strain/Indicator: V-79 (HPRT)/6-THIOGUANINE, Metabolic Activation: NONE): inactive; negative

C1=CC2C3C=CC(C3)C2C1 (configuration not stated)
mutagenic call [3]: inactive; negative
mutagenic call [11]: inactive; negative
mutagenic call (Test System: AMES SALMONELLA TYPHIMURIUM, Strain/Indicator: TA98, Metabolic Activation: RAT LIVER S-9, PHENOBARBITAL AND BETA-NAPHTHOFLAVONE, Method: PREINCUBATION): inactive; negative
mutagenic call [4]: inactive; negative
mutagenic call [5]: inactive; negative
mutagenic call [6]: inactive; negative
mutagenic call (Test System: AMES SALMONELLA TYPHIMURIUM, Strain/Indicator: TA100, Metabolic Activation: RAT LIVER S-9, PHENOBARBITAL AND BETA-NAPHTHOFLAVONE, Method: PREINCUBATION): inactive; negative
mutagenic call [7]: inactive; negative
mutagenic call [8]: inactive; negative
mutagenic call [9]: inactive; negative
mutagenic call (Test System: AMES SALMONELLA TYPHIMURIUM, Strain/Indicator: TA1535, Metabolic Activation: RAT LIVER S-9, PHENOBARBITAL AND BETA-NAPHTHOFLAVONE, Method: PREINCUBATION): inactive; negative
mutagenic call [10]: inactive; negative
mutagenic call (Test System: AMES SALMONELLA TYPHIMURIUM, Strain/Indicator: TA1537, Metabolic Activation: HAMSTER, LIVER, S-9, AROCLOR 1254 (10%), Method: PREINCUBATION): inactive; negative
mutagenic call [12]: inactive; negative
mutagenic call (Test System: AMES SALMONELLA TYPHIMURIUM, Strain/Indicator: TA1537, Metabolic Activation: RAT LIVER S-9, PHENOBARBITAL AND BETA-NAPHTHOFLAVONE, Method: PREINCUBATION): inactive; negative
mutagenic call (Test System: AMES SALMONELLA TYPHIMURIUM, Strain/Indicator: TA1537, Metabolic Activation: RAT, LIVER, S-9, AROCLOR 1254 (10%), Method: PREINCUBATION): inactive; negative
mutagenic call (Test System: E.COLI, Strain/Indicator: WP2UVRA, Metabolic Activation: NONE, Method: PREINCUBATION): inactive; negative
mutagenic call (Test System: E.COLI, Strain/Indicator: WP2UVRA, Metabolic Activation: RAT LIVER S-9, PHENOBARBITAL AND BETA-NAPHTHOFLAVONE, Method: PREINCUBATION): inactive; negative
